In one assay the target is MAPKAP-K2 (Homo sapiens, UniProt P49137). The assay is described as follows: MAPKAP-K2 enzyme activity inhibition (33P-ATP filter plate kinase assay). Also: key: +: active; ++: more active; +++: very active. The class given is biochemical. The note with it: MAPKAP-K2 inhibitory activity; assays conducted at typically 1-100 μM. The protocol: [General Procedure for Measurement of MAPKAP-K2 Enzyme Activity Inhibition]
Sequence of MAPKAP-K2 (P49137 whole entry): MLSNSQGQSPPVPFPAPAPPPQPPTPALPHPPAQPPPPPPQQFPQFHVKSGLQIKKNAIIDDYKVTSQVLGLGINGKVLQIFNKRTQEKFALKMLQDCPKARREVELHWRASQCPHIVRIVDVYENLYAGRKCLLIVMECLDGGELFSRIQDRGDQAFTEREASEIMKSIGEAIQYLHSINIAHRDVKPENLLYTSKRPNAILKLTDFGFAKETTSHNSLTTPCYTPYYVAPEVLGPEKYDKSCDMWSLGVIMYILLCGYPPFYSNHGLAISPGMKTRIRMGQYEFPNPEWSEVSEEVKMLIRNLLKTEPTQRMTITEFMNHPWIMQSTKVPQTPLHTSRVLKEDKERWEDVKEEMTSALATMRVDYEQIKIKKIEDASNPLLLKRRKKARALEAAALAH
After conducting the reaction for 30 minutes at room temperature, an equivalent volume of a 200 mM phosphoric acid solution was added to suspend the reaction, and 90 μL of the reaction product was adsorbed onto a MultiScreen PH plate (Millipore) and rinsed with a 100 mM phosphoric acid solution. After drying the plate, 30 μL of MicroScint-O (Packard BioScience) was added, and the cpm was measured with a scintillation counter to determine the inhibiting activity. Substrate peptide is […]
Turning to `CCCC1CCNCC1Nc1nc2ccnn2c(Nc2ccc(OCC)cc2)c1C` (racemic) [Compound 814, 7-N-(4-Ethoxy-phenyl)-6-methyl-5-N-(4-propyl-piperidin-3-yl)-pyrazolo[1,5-a]pyrimidine-5,7-diamine], the “activity (efficacy against MAPKAP-K2)” value was “++”.

`Cc1c(NC2CCCNC2)nc2ccnn2c1Nc1ccc(F)c(Cl)c1` (stereo not drawn) [Compound 152]: the “activity (efficacy against MAPKAP-K2)” value was “++”. On the same count and under the same terms, then `Cc1c(N[C@H]2CC[C@H](N)CC2)nc2ccnn2c1Nc1cccc(OCCN2CCNCC2)c1` [Compound 259, {5-[(trans-4-aminocyclohexyl)amino]-6-methyl(pyrazolo[1,5-a]pyrimidin-7-yl)}[3-(2-piperazinylethoxy)phenyl]amine], with “++”. Consider `CCOc1ccc(Nc2c(C)c(NC3CCCCNC3)nc3ccnn23)cc1` (stereo not drawn) [Compound 272, [5-(azaperhydroepin-3-ylamino)-6-methyl(pyrazolo[1,5-a]pyrimidin-7-yl)](4-ethoxyphenyl)amine], for which the “activity (efficacy against MAPKAP-K2)” value is listed as “++”.

Consider `Cc1c(N[C@H]2CC[C@H](N)CC2)nc2ccnn2c1Nc1ccc(C#Cc2ccccc2)cc1` [Compound 375, {5-[(trans-4-aminocyclohexyl)amino]-6-methyl(pyrazolo[1,5-a]pyrimidin-7-yl)}[4-(2-phenylethynyl)phenyl]amine], for which the “activity (efficacy against MAPKAP-K2)” value was “+++”.

`CCOc1ccc(Nc2c(C)c(N[C@H]3CC[C@H](N)CC3)nc3c(NC(C)=O)cnn23)cc1` [Compound 378, N-{5-[(trans-4-aminocyclohexyl)amino]-7-[(4-ethoxyphenyl)amino]-6-methyl(pyrazolo[1,5-a]pyrimidin-3-yl)}acetamide]: the “activity (efficacy against MAPKAP-K2)” value is listed as “+”. With `CCOc1ccc(Nc2c(C)c(N[C@H]3CC[C@H](N)CC3)nc3c(NS(C)(=O)=O)cnn23)cc1` [Compound 386, {5-[(trans-4-aminocyclohexyl)amino]-7-[(4-ethoxyphenyl)amino]-6-methyl(pyrazolo[1,5-a]pyrimidin-3-yl)}(methylsulfonyl)amine], the “activity (efficacy against MAPKAP-K2)” value is “+”. On to `CCOc1ccc(Nc2c(C)c(N[C@H]3CC[C@H](N)CC3)nc3c(NC(=O)Nc4ccccc4)cnn23)cc1` [Compound 389, N-{5-[(trans-4-aminocyclohexyl)amino]-7-[(4-ethoxyphenyl)amino]-6-methyl(pyrazolo[1,5-a]pyrimidin-3-yl)}(phenylamino)carboxamide], for which the “activity (efficacy against MAPKAP-K2)” value is recorded as “++”.

As for `CCOc1ccc(Nc2c(C)c(N[C@H]3CC[C@H](N)CC3)nc3c(NCc4ccccc4)cnn23)cc1` [Compound 436, {5-[(trans-4-aminocyclohexyl)amino]-6-methyl-[3-benzylamino](pyrazolo[1,5-a]pyrimidin-7-yl)}(4-ethoxyphenyl)amine], the “activity (efficacy against MAPKAP-K2)” value is “+”. The same measure, in the same setting: then `Cc1c(N[C@H]2CC[C@H](N)CC2)nc2ccnn2c1Nc1cccc(-c2cccnc2)c1` [Compound 450, {5-[(trans-4-aminocyclohexyl)amino]-6-methyl(pyrazolo[1,5-a]pyrimidin-7-yl)}(3-(3-pyridyl)phenyl)amine], with “+++”.

For the compound `Cc1c(N[C@H]2CC[C@H](N)CC2)nc2ccnn2c1Nc1ccc(C(=O)N2CCCC2)cc1` [Compound 792, 4-({5-[(trans-4-aminocyclohexyl)amino]-6-methyl(pyrazolo[1,5-a]pyrimidin-7-yl)}amino)phenyl pyrrolidinyl ketone], the “activity (efficacy against MAPKAP-K2)” value is “+++”.

A further assay addresses CDK-2 (Homo sapiens, UniProt P24941). The assay is described as follows: CDK-2 enzyme activity inhibition (33P-ATP filter plate kinase assay). The assay is classed as biochemical. Conditions: read-out: CDK-2 inhibition IC50. From the text: [General Procedure for Measurement of CDK-2 Enzyme Activity Inhibition]
For `CCOc1ccc(Nc2c(C)c(NC(CO)C(C)C)nc3ccnn23)cc1` (stereo not drawn) [Compound 366], the IC50 is below 100 µM. Still for that read-out and setting: then `CCOc1ccc(Nc2c(C)c(NC3(CO)CCCC3)nc3ccnn23)cc1` [Compound 368], with below 100 µM. Still for that read-out and setting: then `CCOc1ccc(Nc2c(C)c(NC(C)(C)CO)nc3ccnn23)cc1` [Compound 371], with below 100 µM; and `CCOc1ccc(Nc2c(C)c(N[C@H]3CC[C@H](N)CC3)nc3c(OC)cnn23)cc1` [Compound 425], with below 100 µM.
